Source: paper PMC8289861 (Scientific Reports, 2021)

How the values were obtained:
[1] = system: colon-derived human cells (NCM460 and HT-29MTX); settings: cited from earlier work
[2] = system: Caco-2 cells
[3] = system: Caco-2 cells; settings: cited from earlier work
[4] = cited from earlier work
[5] = set-up: method as in PMID 25283090; settings: in vivo studies; cited from earlier work
[6] = cited from earlier work; remark: listed apart in the source

In the case of `O=[As]O[As]=O` (stereo not shown) [As, arsenic oxide (As III)], the “decrease of Papp values” [1] is given as 63%, the “decrease in the permeability as measured by Papp” value (“decrease in the permeability” for short) [2] is given as 7.5% and the “decrease of Papp values” [2] is given as 7.5%. For the same compound, the Papp ([3]; at 2 h, concentration 67 μM) was 4.6 ± 0.3 × 10^–6 cm/s.

For `[CH3][Hg]` [CH3Hg], the “decrease in the cellular accumulation” value [3] is listed as “up to 55%”.

In the case of `CC(=O)[O-].CC(=O)[O-].[Cd+2]` [Cd, cadmium acetate], the “decrease in the permeability” value [2] is listed as 6.3%, the “decrease of Papp values” [2] is listed as 6.3% and the “Cd accumulated in the Caco-2 cells” value ([3]; Caco-2) is listed as 6-12%. For the same compound, the “lag time during which transport into the basolateral compartment was undetectable” value [3] was “about 60 min” and the “reduction of ML in the basolateral chamber” value [3] was 90%.

For `[Cl][Cd][Cl]` [CdCl2], the “Cd taken up (retained in the cells and transferred through cells) by Caco-2 cells” value ([3]; Caco-2) is listed as 25%.

For `O=S(=O)(O)CC(S)CS` (stereo not shown) [DMPS, 2,3-dimercapto-1-propanesulfonic acid], the “Properties: water solubility” value [4] is listed as “C3H8O3S3 M.wt; 188.289g/mol Water soluble”.

For `[Cl][Hg][Cl]` [Hg, mercuric chloride], the “decrease in the permeability” value [2] is listed as 8.2%, the “decrease of Papp values” [2] is listed as 7.9% and the absorption in vivo [5] is listed as < 15%. The cell retention [3] was 49–69%, the cellular accumulation [3] was 21–51% and the “transport to the basal compartment” value [3] was 3–14%. The “transport to the basolateral side” value [3] was 9–20%.

In the case of `CC(=O)[O-].CC(=O)[O-].[Pb+2]` [Pb, lead acetate], the “decrease in the permeability” value [2] is listed as 7.9%, the “decrease of Papp values” [2] is listed as 8.2% and the “Pb absorbed (associated and transported by Caco-2 cells)” value ([3]; Caco-2) is listed as 30%. For the same compound, the “Pb moved through the single layer” value [3] was 3%, the “Pb retained by the cells” value [3] was “approximately 27%” and the “reduction of ML in the basolateral chamber” value [3] was 50%. The absolute bioavailability ([6]; estimated from Pb concentration in blood) was 2.7%, the “fish meal Pb found in kidney” value ([6]; kidney) was 1.4% and the “fish meal Pb found in liver” value ([6]; liver) was 0.9%.
